One data set concerns the target T1, recombinant CTD (Homo sapiens, UniProt P07339).
T1 construct: purchased Sigma
The experiment in a line: Degradation assay of internally quenched fluorescent Aβ peptides with cathepsin D. Format: in vitro ADME. The conditions noted are these: 10 pmol, 5 mU recombinant CTD, 100 mM sodium acetate pH 5.0, 37 °C, fluorescence ex 485 / em 520 nm, mean ± SD, two independent experiments (n = 10). On the procedure: Therefore, we investigated whether the pE-modified Aβ is more resistant to lysosomal degradation. To this end, a degradation assay with the major lysosomal hydrolase CTD was performed. For this purpose, we used internally quenched fluorescent Aβ peptides. Degradation of the peptides removes the quencher and restores the fluorescent signal (Reits et al. [2003]), thus allowing analysis of degradation over time by monitoring the increase in fluorescence. […] To investigate the effect of aggregation on degradation, we used pre-aggregated Aβ1-40 and Aβ3(pE)-40 in the CTD assay. […] Upon aggregation, the overall degradation is hampered, but the observed difference between the peptides is retained.
Aβ peptides containing fluorophore and quencher were synthesized by solid phase synthesis using an Fmoc strategy at the NKI peptide facility. […] Peptides were purified by RP-HPLC and evidenced the expected molecular mass as determined by mass spectrometry.
Immediately prior to use, HFIP-treated peptide films of fluorescently labeled internally quenched Aβ were resuspended in DMSO and further diluted in PBS. […] Degradation of quenched peptides was followed by monitoring the increase in fluorescence (excitation, 485–12 nm; emission, 520 nm, Fluostar Omega) at 37 °C. Background fluorescence of peptide incubated in buffer without CTD controls was subtracted. […]

The subject of data set [1] is differentiated SK-N-SH cells. Briefly: Lysosomal membrane permeabilization: CTD in subcellular fractions, Western blot. Type of data set: cell-based. The following applies: 1 μM oligomers, 16 h, three experiments. On the procedure:
(§1) To investigate whether Aβ3(pE)-42 oligomers affect the integrity of the lysosomes, lysosomal membrane permeabilization (LMP) was analyzed in differentiated SK-N-SH cells. A distinctive sign of LMP is the translocation of soluble lysosomal components, from the lysosomal lumen to the cytosol (Boya et al. [2003]). Differentiated SK-N-SH cells were treated with Aβ oligomers and the leakage of cathepsin D (CTD), a soluble lysosomal enzyme, from the lysosomal lumen to the cytosol was analyzed after subcellular fractionation on Western blot and by immunofluorescent staining. Treatment with Aβ3(pE)-42 oligomers led to a decrease of CTD in the membrane fraction (which also contained the lysosomes) whereas the cytosolic CTD was increased. […] The result was confirmed by immunofluorescent staining of CTD. Untreated cells reveal a particulate staining pattern, indicative of its localization within lysosomes (Fig. 1b).
SK-N-SH and HeLa cells were cultured in Dulbecco’s modified Eagle’s medium with GlutaMAX (Gibco BRL, Carlsbad, CA, USA) supplemented with 10 % fetal calf serum (FCS, Gibco BRL), 100 μg/ml streptomycin, and 100 U/ml penicillin. Cell lines are routinely checked for mycoplasma contamination using a specific 16S rRNA PCR-based assay; all cells used in this study were mycoplasma free. […]
For orientation: A western blot detects proteins with antibodies after separation by electrophoresis.

In data set [2] the test system is differentiated SK-N-SH cells. Briefly: Lysosomal membrane permeabilization: immunofluorescent staining of CTD. Type of data set: cell-based. The following applies: 1 μM Aβ oligomers or hydroxychloroquine, 16 h; confocal microscopy. On the procedure: as §1, with “1b). […] SK-N-SH and HeLa cells were cultured in Dulbecco’s modified Eagle’s medium with GlutaMAX (Gibco BRL, Carlsbad, CA, USA) supplemented with 10 % fetal calf serum (FCS, Gibco BRL), 100 μg/ml streptomycin, and 100 U/ml penicillin. Cell lines are routinely checked for mycoplasma contamination using a specific 16S rRNA PCR-based assay; all cells used in this study were mycoplasma free. […]” for “1b).”

T1 sequence (P07339 65-412): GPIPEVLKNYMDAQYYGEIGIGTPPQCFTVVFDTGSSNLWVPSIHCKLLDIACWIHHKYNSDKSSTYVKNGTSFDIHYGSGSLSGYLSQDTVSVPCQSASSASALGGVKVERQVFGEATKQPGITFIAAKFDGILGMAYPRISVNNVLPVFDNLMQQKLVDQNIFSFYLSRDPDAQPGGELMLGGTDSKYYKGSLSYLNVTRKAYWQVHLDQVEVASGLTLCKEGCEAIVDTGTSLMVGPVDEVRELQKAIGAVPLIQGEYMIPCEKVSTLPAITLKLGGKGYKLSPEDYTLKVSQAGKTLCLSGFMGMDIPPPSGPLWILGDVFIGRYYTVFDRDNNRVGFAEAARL

With “Aβ1-40: internally quenched fluorescent Aβ peptide, Oregon green 488 at amino acid 22 and dabcyl at amino acid 12; pre-aggregated or not”, the “time to reach the half-max fluorescence of degradation (t 1/2)” value in the data set with recombinant CTD (not pre-aggregated, internally quenched fluorescent peptide (Oregon green 488 at aa 22, dabcyl at aa 12)) is given as 48.9 ± 4.3 min; with recombinant CTD (pre-aggregated peptide, internally quenched fluorescent peptide) it was 63.6 ± 10.0 min.

For the substance “Aβ1-42: synthetic amyloid beta 1-42 purchased from Anaspec, used as oligomers”, in data set [1], the “CTD in the membrane fraction (containing the lysosomes)” value was “did not change” and the “cytosolic CTD” value is “did not change”. The “CTD staining pattern (release from lysosomes to cytoplasm)” value in data set [2] is recorded as “same pattern but to a lesser extent”.
